Literature values, collected in US20240109913A1, “NEW SPIRO[3H-INDOLE-3,2'-PYRROLIDIN]-2(1H)-ONE COMPOUNDS AND DERIVATIVES AS MDM2-P53 INHIBITORS” (Boehringer Ingelheim International GmbH, priority 2014, published 2024).

Key:
[1] = tested on: p53 wild-type vs. p53 mutant cell lines; conditions: in vitro (Carol et al. 2013)
[2] = tested on: solid tumor xenograft models; conditions: solid tumor xenograft models (Carol et al. 2013)
[3] = tested on: acute lymphoblastic leukemia (ALL) xenograft models with mixed-lineage leukemia (MLL) rearrangement; conditions: ALL xenograft models with MLL rearrangement (Carol et al. 2013)
[4] = tested on: human acute myeloid leukemia (AML) and human prostate tumor xenograft models harboring p53 wild-type; conditions: p53 wild-type (Tovar et al. 2013)

SMILES | cytotoxic activity, median IC50 [1] | tumor growth inhibition [2] | efficacy in ALL xenograft models [3] | antiproliferative and proapoptotic activity [4]
CCOc1cc(C(C)(C)C)ccc1C1=N[C@@](C)(c2ccc(Cl)cc2)[C@@](C)(c2ccc(Cl)cc2)N1C(=O)N1CCN(CCCS(C)(=O)=O)CC1 [RG-7112] | lower median IC50 values for p53 wild-type vs. p53 mutant cell lines | induced tumor growth inhibition | particularly efficacious | 
CCOc1cc(C(C)(C)C)ccc1C1=N[C@@](C)(c2ccc(Cl)cc2)[C@@](C)(c2ccc(Cl)cc2)N1C(=O)N1CCN(CCCS(C)(=O)=O)CC1 [RG7112] |  |  |  | antiproliferative and proapoptotic activity of RG7112 has been observed
